ChEMBL document CHEMBL1201862, “PubChem BioAssay data set” (2004)
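How tested: cells in 96-well plates exposed to compound for 48 hours at five concentrations. GI50 = concentration required for 50% inhibition of growth.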 Active and inactive are the calls of the source. No stated cut-off is given here; in the data, active = GI50 up to about 1.1 µM and inactive = higher.

Key:
Assay in all cases: NCI tumour cell line growth inhibition, 48 h
OVCAR-4 = tested on: OVCAR-4
SNB-19 = tested on: SNB-19
KM12 = tested on: KM12
HL-60 = tested on: HL-60
SW-620 = tested on: SW-620
NCI-H226 = tested on: NCI-H226
SK-OV-3 = tested on: SK-OV-3
Malme-3M = tested on: Malme-3M
NCI-H522 = tested on: NCI-H522
NCI-H23 = tested on: NCI-H23
SK-MEL-5 = tested on: SK-MEL-5
SF-295 = tested on: SF-295
SR = tested on: SR
MDA-MB-231 = tested on: MDA-MB-231
TK-10 = tested on: TK-10
UACC-62 = tested on: UACC-62
DU-145 = tested on: DU-145
CCRF-CEM = tested on: CCRF-CEM
M14 = tested on: M14
HCT-116 = tested on: HCT-116
IGROV-1 = tested on: IGROV-1
U-251 = tested on: U-251
BT-549 = tested on: BT-549
RXF 393 = tested on: RXF 393
T47D = tested on: T47D
SF-268 = tested on: SF-268
SF-539 = tested on: SF-539
EKVX = tested on: EKVX
SK-MEL-28 = tested on: SK-MEL-28
K562 = tested on: K562
OVCAR-3 = tested on: OVCAR-3
SN12C = tested on: SN12C
MCF7 = tested on: MCF7
OVCAR-5 = tested on: OVCAR-5
OVCAR-8 = tested on: OVCAR-8
A498 = tested on: A498
NCI-H460 = tested on: NCI-H460
HCC 2998 = tested on: HCC 2998
SK-MEL-2 = tested on: SK-MEL-2
A549 = tested on: A549
HCT-15 = tested on: HCT-15
UACC-257 = tested on: UACC-257
786-0 = tested on: 786-0
SNB-75 = tested on: SNB-75
HOP-92 = tested on: HOP-92
ACHN = tested on: ACHN
MOLT-4 = tested on: MOLT-4
HT-29 = tested on: HT-29
COLO 205 = tested on: COLO 205
UO-31 = tested on: UO-31
Hs-578T = tested on: Hs-578T
CAKI-1 = tested on: CAKI-1
MDA-MB-435 = tested on: MDA-MB-435
PC-3 = tested on: PC-3
NCI/ADR-RES = tested on: NCI/ADR-RES
RPMI-8226 = tested on: RPMI-8226
HOP-62 = tested on: HOP-62
MDA-N = tested on: MDA-N
LOX IMVI = tested on: LOX IMVI

SMILES: Cc1c(C)c2c(c(N)c1C#N)C(=O)N(O)C2=O
- GI50 (OVCAR-4): > 100 µM (inactive)
- GI50 (SNB-19): > 100 µM (inactive)
- GI50 (KM12): > 100 µM (inactive)
- GI50 (HL-60): > 100 µM (inactive)
- GI50 (SW-620): > 100 µM (inactive)
- GI50 (NCI-H226): > 100 µM (inactive)
- GI50 (SK-OV-3): > 100 µM (inactive)
- GI50 (Malme-3M): > 100 µM (inactive)
- GI50 (NCI-H522): > 100 µM (inactive)
- GI50 (NCI-H23): > 100 µM (inactive)
- GI50 (SK-MEL-5): > 100 µM (inactive)
- GI50 (SF-295): > 100 µM (inactive)
- GI50 (SR): > 100 µM (inactive)
- GI50 (MDA-MB-231): > 100 µM (inactive)
- GI50 (TK-10): > 100 µM (inactive)
- GI50 (UACC-62): > 100 µM (inactive)
- GI50 (DU-145): > 100 µM (inactive)
- GI50 (CCRF-CEM): > 100 µM (inactive)
- GI50 (M14): > 100 µM (inactive)
- GI50 (HCT-116): > 100 µM (inactive)
- GI50 (IGROV-1): > 100 µM (inactive)
- GI50 (U-251): > 100 µM (inactive)
- GI50 (BT-549): > 100 µM (inactive)
- GI50 (RXF 393): > 100 µM (inactive)
- GI50 (T47D): > 100 µM (inactive)
- GI50 (SF-268): > 100 µM (inactive)
- GI50 (SF-539): > 100 µM (inactive)
- GI50 (EKVX): > 100 µM (inactive)
- GI50 (SK-MEL-28): > 100 µM (inactive)
- GI50 (K562): > 100 µM (inactive)
- GI50 (OVCAR-3): > 100 µM (inactive)
- GI50 (SN12C): > 100 µM (inactive)
- GI50 (MCF7): > 100 µM (inactive)
- GI50 (OVCAR-5): > 100 µM (inactive)
- GI50 (OVCAR-8): > 100 µM (inactive)
- GI50 (A498): > 100 µM (inactive)
- GI50 (NCI-H460): > 100 µM (inactive)
- GI50 (HCC 2998): > 100 µM (inactive)
- GI50 (SK-MEL-2): > 100 µM (inactive)
- GI50 (A549): > 100 µM (inactive)
- GI50 (HCT-15): > 100 µM
- GI50 (UACC-257): > 100 µM (inactive)
- GI50 (786-0): > 100 µM (inactive)
- GI50 (SNB-75): 45.2 µM (inactive)
- GI50 (HOP-92): > 100 µM (inactive)
- GI50 (ACHN): > 100 µM (inactive)
- GI50 (MOLT-4): > 100 µM (inactive)
- GI50 (HT-29): > 100 µM (inactive)
- GI50 (COLO 205): > 100 µM (inactive)
- GI50 (UO-31): > 100 µM (inactive)
- GI50 (Hs-578T): > 100 µM (inactive)
- GI50 (CAKI-1): > 100 µM (inactive)
- GI50 (MDA-MB-435): > 100 µM (inactive)
- GI50 (PC-3): > 100 µM (inactive)
- GI50 (NCI/ADR-RES): > 100 µM (inactive)
- GI50 (RPMI-8226): > 100 µM (inactive)

SMILES: CC1(C)OCC(C2OC(OC(=O)c3ccc(C(F)(F)F)cc3)C3OC(C)(C)OC23)O1 (stereo unspecified)
- GI50 (HOP-62): 39.9 µM (inactive)
- GI50 (OVCAR-4): > 77.4 µM (inactive)
- GI50 (SNB-19): > 77.4 µM (inactive)
- GI50 (KM12): 72.3 µM (inactive)
- GI50 (SW-620): > 77.4 µM (inactive)
- GI50 (NCI-H226): > 77.4 µM (inactive)
- GI50 (SK-OV-3): > 77.4 µM (inactive)
- GI50 (Malme-3M): > 77.4 µM (inactive)
- GI50 (NCI-H522): > 77.4 µM (inactive)
- GI50 (NCI-H23): 58.3 µM (inactive)
- GI50 (SK-MEL-5): 74.5 µM (inactive)
- GI50 (SF-295): > 77.4 µM (inactive)
- GI50 (SR): 23.4 µM (inactive)
- GI50 (MDA-MB-231): 63 µM (inactive)
- GI50 (TK-10): > 77.4 µM (inactive)
- GI50 (UACC-62): > 77.4 µM (inactive)
- GI50 (DU-145): > 77.4 µM (inactive)
- GI50 (CCRF-CEM): 28.2 µM (inactive)
- GI50 (M14): > 77.4 µM (inactive)
- GI50 (HCT-116): > 77.4 µM (inactive)
- GI50 (IGROV-1): > 77.4 µM (inactive)
- GI50 (U-251): 57.8 µM (inactive)
- GI50 (BT-549): > 77.4 µM (inactive)
- GI50 (RXF 393): 28 µM (inactive)
- GI50 (SF-268): 45.4 µM (inactive)
- GI50 (SF-539): > 77.4 µM (inactive)
- GI50 (EKVX): > 77.4 µM (inactive)
- GI50 (SK-MEL-28): > 77.4 µM (inactive)
- GI50 (K562): > 77.4 µM (inactive)
- GI50 (OVCAR-3): > 77.4 µM (inactive)
- GI50 (SN12C): > 77.4 µM (inactive)
- GI50 (MCF7): 53.3 µM (inactive)
- GI50 (OVCAR-5): > 77.4 µM (inactive)
- GI50 (OVCAR-8): > 77.4 µM (inactive)
- GI50 (A498): > 77.4 µM (inactive)
- GI50 (MDA-N): > 77.4 µM (inactive)
- GI50 (NCI-H460): 49.5 µM (inactive)
- GI50 (LOX IMVI): > 77.4 µM (inactive)
- GI50 (HCC 2998): > 77.4 µM (inactive)
- GI50 (SK-MEL-2): > 77.4 µM (inactive)
- GI50 (A549): > 77.4 µM (inactive)
- GI50 (HCT-15): > 77.4 µM
- GI50 (UACC-257): > 77.4 µM (inactive)
- GI50 (786-0): 46.5 µM (inactive)
- GI50 (SNB-75): 40.2 µM (inactive)
- GI50 (ACHN): > 77.4 µM (inactive)
- GI50 (MOLT-4): 38 µM (inactive)
- GI50 (HT-29): 73.1 µM (inactive)
- GI50 (COLO 205): > 77.4 µM (inactive)
- GI50 (UO-31): 19 µM (inactive)
- GI50 (CAKI-1): > 77.4 µM (inactive)
- GI50 (MDA-MB-435): > 77.4 µM (inactive)
- GI50 (PC-3): > 77.4 µM (inactive)
- GI50 (NCI/ADR-RES): 62.1 µM (inactive)
- GI50 (RPMI-8226): 44.4 µM (inactive)
